This is an account of results in ChEMBL document CHEMBL3085665, “Gallic acid is the major component of grape seed extract that inhibits amyloid fibril formation” (Bioorg Med Chem Lett, 2013).

The species entered for data set [1] is Homo sapiens. The data set can be described thus: Inhibition of reduced carboxymethylated-kappa-casein (unknown origin) conversion to amyloid fibrils at 1:2 protein to compound molar ratio after 1000 mins by thioflavin T fluorescence assay relative to control.
Data set [2] is filed under the species Homo sapiens. Briefly: Inhibition of reduced carboxymethylated-kappa-casein (unknown origin) conversion to amyloid fibrils at 0.1:1 to 2:1 compound to protein molar ratio after 1000 mins by thioflavin T fluorescence assay.
Data set [3] addresses Amyloid-beta precursor protein (Homo sapiens) (UniProt P05067). The data set can be described thus: Inhibition of amyloid beta (1 to 40) (unknown origin) aggregation at 1:0.1 to 1:2 protein to compound molar ratio after 20 hrs by transmission electron microscopic analysis.
The species entered for data set [4] is Homo sapiens. The data set can be described thus: Inhibition of reduced carboxymethylated-kappa-casein (unknown origin) conversion to amyloid fibrils at 1:1 protein to compound molar ratio after 1000 mins by thioflavin T fluorescence assay relative to control.
Data set [5] is filed under the species Homo sapiens. Briefly: Inhibition of reduced carboxymethylated-kappa-casein (unknown origin) conversion to amyloid fibrils at 1:0.5 protein to compound molar ratio after 1000 mins by thioflavin T fluorescence assay relative to control.
Data set [6] deals with Amyloid-beta precursor protein (Homo sapiens) (UniProt P05067). Briefly: Inhibition of amyloid beta (1 to 40) (unknown origin) aggregation at 1:0.1 to 1:2 protein to compound molar ratio up to 10 hrs by thioflavin T fluorescence assay.
Sequence of Amyloid-beta precursor protein (Homo sapiens) (P05067 whole entry): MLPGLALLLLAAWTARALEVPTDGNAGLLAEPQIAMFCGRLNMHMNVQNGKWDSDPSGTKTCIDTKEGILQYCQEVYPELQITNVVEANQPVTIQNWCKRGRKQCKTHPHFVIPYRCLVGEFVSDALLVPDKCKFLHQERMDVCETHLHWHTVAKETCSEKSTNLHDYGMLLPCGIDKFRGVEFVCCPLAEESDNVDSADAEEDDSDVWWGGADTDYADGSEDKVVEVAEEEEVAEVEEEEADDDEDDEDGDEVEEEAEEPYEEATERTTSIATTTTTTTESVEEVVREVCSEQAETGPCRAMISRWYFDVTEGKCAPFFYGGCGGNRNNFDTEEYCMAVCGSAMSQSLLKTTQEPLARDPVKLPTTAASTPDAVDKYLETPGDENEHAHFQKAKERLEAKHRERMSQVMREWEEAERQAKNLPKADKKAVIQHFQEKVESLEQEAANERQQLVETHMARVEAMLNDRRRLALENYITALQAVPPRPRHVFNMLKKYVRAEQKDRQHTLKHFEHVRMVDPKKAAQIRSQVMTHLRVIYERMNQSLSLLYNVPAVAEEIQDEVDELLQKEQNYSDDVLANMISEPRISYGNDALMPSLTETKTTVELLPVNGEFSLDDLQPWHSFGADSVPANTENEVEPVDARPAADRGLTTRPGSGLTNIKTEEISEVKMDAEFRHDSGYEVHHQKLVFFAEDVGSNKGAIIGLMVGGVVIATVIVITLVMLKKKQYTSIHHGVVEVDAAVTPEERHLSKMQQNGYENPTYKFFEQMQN
The species entered for data set [7] is Homo sapiens. The data set can be described thus: Binding affinity to reduced carboxymethylated-kappa-casein (unknown origin) at 1:2 protein to compound molar ratio after 20 hrs by far-UV-CD spectroscopic analysis.
Data set [8] is described as follows: Effect on RCM-kappa-casein-induced cytotoxicity against rat PC12 cells assessed as increase in cell viability at 1:2 protein to compound molar ratio after 48 hrs by MTT assay relative to control. Format: functional, PC-12. (In general: Tetrazolium assays rely on reduction of a dye to a coloured formazan, in cell work by metabolically active cells.)
Data set [9] can be described thus: Reduction in RCM-kappa-casein-induced cytotoxicity against rat PC12 cells after 48 hrs by MTT assay. It counts as functional, cell-based. The settings on record: PC-12.
Data set [10] in a line: (§1) Inhibition of reduced carboxymethylated-kappa-casein (unknown origin) conversion to amyloid fibrils after 1000 mins by thioflavin T fluorescence assay. On the set-up: species or system Homo sapiens.
Data set [11] is filed under the species Homo sapiens. The data set is described as §1.
The nature of data set [12]: Cytotoxicity against rat PC12 cells assessed as cell viability at 5 uM after 48 hrs by MTT assay. It counts as cell-based. The settings on record: pc-12, 48 h.
The test system of data set [13] is PC-12. Briefly: Effect on RCM-kappa-casein-induced cytotoxicity against rat PC12 cells at 1:0.1 to 1:0.5 protein to compound molar ratio after 48 hrs by MTT assay. Format: functional, cell-based.
The species named for data set [14] is Homo sapiens. Briefly: Inhibition of reduced carboxymethylated-kappa-casein (unknown origin) conversion to amyloid fibrils at 1:0.1 protein to compound molar ratio after 1000 mins by thioflavin T fluorescence assay relative to control.
The species entered for data set [15] is Homo sapiens. Briefly: Inhibition of reduced carboxymethylated-kappa-casein (unknown origin) conversion to amyloid fibrils assessed as decrease in number of long, unbranched and mature amyloid fibrils at 1:2 protein to compound molar ratio after 1000 mins by transmission electron microscopic analysis.

Active and inactive are the calls of the source. No cut-off for these calls is given here.

As for `C[C@@H]1O[C@@H](OC[C@H]2O[C@@H](Oc3cc4c(O)cc(O)cc4[o+]c3-c3ccc(O)c(O)c3)[C@H](O)[C@@H](O)[C@@H]2O)[C@H](O)[C@H](O)[C@H]1O`, the inhibition in data set [1] stood at 54%.

`Oc1cc(O)c2c(c1)OC(c1ccc(O)c(O)c1)C(O)C2` (configuration not stated): the inhibition entry in [2] was “inactive”.

For `Oc1cc(O)c2c(c1)O[C@H](c1ccc(O)c(O)c1)[C@H](O)C2`, the inhibition entry in data set [2] was “inactive”.

For the molecule `O=C(O)c1cc(O)c(O)c(O)c1` [GALLIC ACID], the inhibition result in [3], in data set [6] and in data set [15] was “Active” throughout. For the same molecule, the inhibition was 87% in [4]; 54% in [5]; 98% in data set [1]; “Dose-dependent effect” in data set [11]; 3% in [14]. Also, the outcome in data set [7] was Active. The Activity in [8] was 88%; in [9], “Dose-dependent effect”; in [12], “Non-toxic”. In addition, the IC50 in data set [10] was found to be 7.7 µM. Further, the result in data set [13] was inactive.

The inhibition is how much of the control response was suppressed. As a reminder, the IC50 is the concentration that inhibits the measured activity by half. A lower IC50 goes with inhibition by little substance.
